Results on 85 molecules are retold here after PubChem BioAssay AID1959 (Broad Institute, 2009).

Each structure is given as a SMILES string. The source made the active and inactive calls.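 Rule for the calls: active = growth-inhibition EC50 no more than tenfold above the top tested dose; inconclusive = flat fit between 30% and 70% inhibition, or unreliable fit; inactive = EC50 more than tenfold above the top tested dose.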

By EC50 is commonly meant the concentration at which the effect is half-maximal.

In this test the test system is E. coli NEB5alpha growth, BacTiter-Glo luminescence, 4 h. Briefly: Escherichia coli growth inhibition, dose response, counter-screen for MEX-5/POS-1 RNA-binding inhibitor project, luminescence, NEB5alpha (AID 1959).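 Note: pUC19-transformed ampicillin-resistant cells grown in LB with ampicillin.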
As for `COc1cccc(C2C(C(=O)c3cc4cccc(OC)c4o3)=C(O)C(=O)N2c2cc(C)on2)c1OC` (stereo not given), the EC50 is > 11 µM (inactive).
The same measure for `N=c1c(S(=O)(=O)c2ccccc2)cc2c(=O)n3ccccc3nc2n1Cc1cccnc1`: > 11 µM (inactive).
The same measure for `Cc1ccc(-c2ccc(CCC(=O)O)n2-c2ccc(C(=O)O)cc2)cc1`: > 11 µM (inactive); for `CCC(C)n1c(=N)c(C#N)cc2c(=O)n3cc(C)ccc3nc21` (stereo not given): > 11 µM (inactive); for `O=C1NC(=S)N(c2ccc(F)cc2)C(=O)/C1=C/c1ccco1`: > 11 µM (inactive).
The same measure for `Cc1cccc2sc(NNC(=O)c3cc(=O)c4ccccc4o3)nc12`: > 11 µM (inactive).
Regarding `Cc1cc(C)cc(N2C(=O)NC(=O)/C(=C\c3cc(C)n(C)c3C)C2=O)c1`, the EC50 is > 11 µM (inactive).
Take `COc1cc(/C=N/c2oc(-c3ccccc3)cc2C#N)ccc1O`: the EC50 is > 11 µM (inactive).
The same measure for `Nc1c(O)ccc2c1C(=O)c1ccccc1C2=O`: > 11 µM (inactive); for `Cc1ccc(NC(=O)c2sc3nc4c(c(-c5ccco5)c3c2N)CCC4)cc1`: > 11 µM (inactive).
The same measure for `CNc1c(N)n(Cc2ccccc2)c(=O)[nH]c1=O`: > 11 µM (inactive); for `CCCn1nc(C(=O)Nc2ccc(S(=O)(=O)Nc3nccs3)cc2)c2ccccc2c1=O`: > 11 µM (inactive).
The same measure for `Oc1ccc(-c2cnns2)c(O)c1`: > 11 µM (inactive); for `NC(=S)N=Nc1ccc(NN=C(N)N)cc1`: > 11 µM (inactive); for `CC1=NN(c2ccc(C(=O)O)c(N)c2)C(=O)C1`: > 11 µM (inactive).
`Cc1ccc(S(=O)(=O)/N=C2\C=C(Nc3cccc(C(=O)O)c3)C(=O)c3ccccc32)c(C)c1`: the EC50 was > 11 µM (inactive).
The same measure for `N#CC(C#N)=Cc1ccc(-c2ccccc2)o1`: > 11 µM (inactive); for `O=c1[nH]c(=O)n(CC2CCCO2)c(O)c1/C=C1\C=Nc2ccccc21` (stereo not given): > 11 µM (inactive); for `NS(=O)(=O)c1ccc(-c2ccc(/C=C3\NC(=S)NC3=O)o2)cc1`: > 11 µM (inactive).
The same measure for `Cc1sc(-c2ccccn2)nc1OC(=O)c1cccc(Cl)c1Cl`: > 11 µM (inactive); for `O=c1[nH]c(=O)n(Cc2ccccc2Cl)c(O)c1C=Nc1ccc(F)cc1`: > 11 µM (inactive); for `O=C(N/N=C/c1cc(Cl)cc([N+](=O)[O-])c1O)c1ccc2c(c1)OCO2`: > 11 µM (inactive).
The same measure for `Cc1cc(/C=C2\C(=O)NC(=O)N(c3ccccc3F)C2=O)c(C)n1-c1cc(C(=O)O)cc(C(=O)O)c1`: > 11 µM (inactive).
For `Cc1cc(C(=O)O)ccc1-n1c(C)ccc1C`, the EC50 is > 11 µM (inactive).
The same measure for `Cc1ccc(C(=O)Oc2oc(-c3ccccc3)nc2C=Nc2ccc(N(C)C)cc2)cc1`: > 11 µM (inactive); for `CCCCOC(=O)CSC1=C(C#N)C(c2ccccc2OCC)C(C#N)C(=O)N1` (stereo not given): > 11 µM (inactive).
The same measure for `N=C1/C(=C\c2ccc(SCc3ccccc3)o2)C(=O)N=C2SC(CC(=O)N3CCOCC3)=NN12`: > 11 µM (inactive).
The same measure for `CN(C)/C=C/C(=O)c1cnc(-c2ccccc2Cl)s1`: > 11 µM (inactive); for `CC(C)Sc1nsc2nc(=O)c(/C=C3\C=Nc4ccccc43)c(N)n12`: > 11 µM (inactive); for `Cc1ccc(O)c(-c2cc(C(=O)Nc3ccc(S(=O)(=O)Nc4nccc(C)n4)cc3)[nH]n2)c1`: > 11 µM (inactive).
Consider `CN1C[C@H](CO)C=C2c3cccc4[nH]cc(c34)C[C@H]21`, for which the EC50 is > 11 µM (inactive).
Turning to `O=C1CCCC2=C1Sc1ccc(Cl)cc1N2`, the EC50 is > 11 µM (inactive).
The same measure for `c1coc(-c2nc3ccccc3nc2-c2ccco2)c1`: > 11 µM (inactive); for `O=C(CNC(=O)/C=C/c1ccco1)N=Nc1c(O)[nH]c2ccccc12`: > 11 µM (inactive).
The same measure for `C=CCn1c(O)c(C=Nc2ccc(N(CC)CC)cc2)c(=O)[nH]c1=O`: > 11 µM (inactive); for `COC(=O)[C@@]1(C#N)[C@@H]2C=CC(C(C)=O)=CN2[C@@H](C(N)=O)[C@@H]1c1ccc(F)cc1`: > 11 µM (inactive).
Turning to `Cc1ccc2cc(/C=C3\N=C(c4ccccc4)OC3=O)c(N3CCOCC3)nc2c1`, the EC50 was > 11 µM (inactive).
The same measure for `COc1ccc(NC(=O)CCl)cn1`: > 11 µM (inactive); for `Cc1n[nH]c(C)c1S(=O)(=O)N1CCCC(C(=O)Nc2ccc(Br)cc2)C1` (stereo not given): > 11 µM (inactive); for `COC(=O)C1=NN(C(=O)c2ccc(C)cc2)C(O)(c2ccc(Cl)cc2)C1` (stereo not given): > 11 µM (inactive).
The same measure for `CCOc1ccccc1-n1c(O)c(C=Nc2ccc(N(CC)CC)cc2)c(=O)[nH]c1=O`: > 11 µM (inactive); for `CCC(C)[C@@H](N)C(=O)N/N=C/c1cccc2nccnc12` (stereo not given in full): > 11 µM (inactive); for `N=c1c(S(=O)(=O)c2ccc(Br)cc2)cc2c(=O)n3ccccc3nc2n1C1CCCCC1`: > 11 µM (inactive).
The same measure for `Cc1cccc(N=C2NC(=O)CS2)c1`: > 11 µM (inactive).
In the case of `COc1cccc(C2C(C#N)=C(N)OC3=C2C(=O)CCC3)c1OC(=O)c1ccco1` (stereo not given), the EC50 was > 11 µM (inactive).
The same measure for `O=C(NNC(=O)c1cc(Cl)ccc1[N+](=O)[O-])c1csc(N2CCOCC2)n1`: > 11 µM (inactive).
The same measure for `COc1ccc(N2C(=O)C(Cl)=C(Nc3ccccc3O)C2=O)cc1`: > 11 µM (inactive); for `COC(=O)CNC(=O)C1Nc2ccc(OC(F)(F)F)cc2C2C=CCC12` (stereo not given): > 11 µM (inactive).
The same measure for `O=c1[nH]c(=O)n(-c2ccc(F)cc2)c(O)c1C=Nc1ccccc1N1CCCC1`: > 11 µM (inactive).
On to `O=C1NC(=O)C(=Cc2ccc(-c3ccc(S(=O)(=O)N4CCOCC4)cc3)o2)C(=O)N1`, for which the EC50 is > 11 µM (inactive).
In the case of `Cc1ccc(C2C(C(=O)c3ccco3)=C(O)C(=O)N2c2nnc(C)s2)cc1` (stereo not given), the EC50 is > 11 µM (inactive).
The same measure for `COc1cc(O)c(C(=O)O)c(-c2cc(O)c(O)cc2C)c1`: > 11 µM (inactive); for `O=C(N/N=C/C=C/c1ccc([N+](=O)[O-])cc1)c1cccs1`: > 11 µM (inactive).
The same measure for `Oc1ccc(-c2csc(Nc3ccccn3)n2)cc1O`: > 11 µM (inactive); for `CCN1/C(=C2/SC(=S)N(NC(C)=O)C2=O)Sc2ccc(OC)cc21`: > 11 µM (inactive); for `CCN(CC)C(=O)Cn1cc(/C=C2\C(=O)NC(=O)N(c3ccccc3F)C2=O)c2ccccc21`: > 11 µM (inactive).
As for `CN1CCc2cccc3c2C1Cc1ccc(O)c(O)c1-3` (stereo not given), the EC50 is > 11 µM (inactive).
The same measure for `Cc1ccc2c(c1C)NC(C(=O)O)C1CC=CC21` (stereo not given): > 11 µM (inactive).
The same measure for `COc1cccc(C2(O)CCN(CC(=O)Nc3nc(C)cs3)CC2)c1`: > 11 µM (inactive); for `CCCNC(=O)c1ccc2c(=O)c(O)c(-c3ccc(F)cc3)[nH]c2c1`: > 11 µM (inactive).
With `O=C(O)CCC(=O)NNc1nc(-c2ccccc2)c2cc(Cl)ccc2n1`, the EC50 is > 11 µM (inactive).
Regarding `CCC1=NN2C(=N)/C(=C\c3ccc(SCc4ccco4)o3)C(=O)N=C2S1`, the EC50 was > 11 µM (inactive).
The same measure for `Cc1cc(C=C2C(=O)NC(=O)NC2=O)c(C)n1-c1cccnc1`: > 11 µM (inactive); for `COc1ccc(C2c3ccc(O)cc3Oc3ncn(Cc4ccco4)c(=N)c32)cc1OC` (stereo not given): > 11 µM (inactive); for `Cc1ccc(-n2c(=O)c(C#N)cc3c(=O)n4ccccc4nc32)cc1C`: > 11 µM (inactive).
The same measure for `Cc1cc(C=O)c(C)n1-c1cc(C(=O)O)cc(C(=O)O)c1`: > 11 µM (inactive).
In the case of `O=C(O)c1[nH]c2ccccc2c1C(c1cc(Cl)cc([N+](=O)[O-])c1O)c1c(C(=O)O)[nH]c2ccccc12`, the EC50 was > 11 µM (inactive).
The same measure for `Cc1cccc(C)c1NC(=O)NN=C1CCCCC1`: > 11 µM (inactive); for `COC(=O)c1[nH]c2cc(OC)c(OC)cc2c1/C=N/Nc1ccccc1`: > 11 µM (inactive).
The same measure for `O=c1cc(-c2ccc(O)c(O)c2)oc2cc(O)cc(O)c12`: > 11 µM (inactive).
The same measure for `C/C(=N\Nc1ccc(Cl)c(C(=O)O)c1)c1ccc[nH]1`: > 11 µM (inactive); for `O=C(O)c1ccc(-c2ccc(/C=C3\NC(=O)N(Cc4ccc(Cl)cc4)C3=O)o2)cc1Cl`: > 11 µM (inactive); for `Cc1c(NC(=O)CSc2ccc(Cl)cc2)cccc1-c1nc2cc(Cl)ccc2o1`: > 11 µM (inactive).
Regarding `Cc1ccc(C)n1-c1ccc2c(c1)COC2=O`, the EC50 is > 11 µM (inactive).
The same measure for `COc1ncnc2c1NC1=C(S2)C(=NCCC(=O)O)CC(C)(C)C1`: > 11 µM (inactive); for `Cc1ncc(CO)c(/C=N/NC(=O)c2cc(Br)ccc2O)c1O`: > 11 µM (inactive).
On to `O=C(/C=C/c1ccc([N+](=O)[O-])s1)N1CCCC1`, for which the EC50 is > 11 µM (inactive).
The same measure for `COc1cccc(OCCCn2cc(/C=C3/C(=N)N4C=C(C)SC4=NC3=O)c3ccccc32)c1`: > 11 µM (inactive); for `Cc1cc(C)c(-n2c(O)c(/C=N/NC(=O)c3ccncc3)c(=O)[nH]c2=O)c(C)c1`: > 11 µM (inactive); for `CCOC(=O)c1ccc(-n2c(CCC(=O)O)ccc2-c2ccccc2)cc1`: > 11 µM (inactive).
The same measure for `CCCOc1ccc(/C=c2\sc3nc(-c4ccco4)nn3c2=O)cc1OCC`: > 11 µM (inactive).
The same measure for `O=C(NNS(=O)(=O)c1ccc([N+](=O)[O-])cc1)C(=O)Nc1cccc(C(=O)O)c1`: > 11 µM (inactive).
Regarding `CN1C(=O)/C(=C/c2ccc3c(c2)OCO3)N=C1c1ccccc1`, the EC50 was > 11 µM (inactive).
The same measure for `NC(=O)c1cccc(N=Cc2cc(Cl)cc(Cl)c2O)c1`: > 11 µM (inactive); for `CCOc1cccc(C2C(C(=O)c3ccc(C)o3)=C(O)C(=O)N2c2nccs2)c1` (stereo not given): > 11 µM (inactive).
